Measurements: patent US20250388575A1, “HETEROBIFUNCTIONAL COMPOUNDS AND METHODS OF TREATING DISEASE” (Halda Therapeutics OpCo, Inc., priority 2022, published 2025)
Read-outs that look alike come from different tables or passages of the source.

Legend:
VCaP cells = assay: Cellular growth inhibition assay for VCaP cells, CellTiter-Glo; format: cell-based, human; details: VCaP cells, 72 hours, CellTiter-Glo, read-out: GI50
Procedure, shortened: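 GI50 values come from four-parameter curve fits of luminescence data normalized to a zero baseline. Compound, in medium with 0.5% DMSO, was added one day after plating and left for 72 h before CellTiter-Glo 2.0 addition.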

[1] = tested on: T-Rex 293 cell line SC3 cells having increased expression of androgen receptor protein; assay: Cellular growth inhibition, T-Rex 293 SC3 cells with increased androgen receptor expression (doxycycline), CellTiter-Glo; format: cell-based; details: T-Rex 293 SC3 cells with increased androgen receptor expression (exposed to 10 ng/mL doxycycline), 72 hours, CellTiter-Glo; read-out: GI50
Procedure, shortened: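 SC3, a T-Rex 293 clone with doxycycline-inducible wild-type androgen receptor, was seeded in phenol red-free DMEM with 10% charcoal-dextran FBS, with or without 10 ng/mL doxycycline. Compound added at 24 h (0.5% DMSO) for 72 h at 37° C. CellTiter-Glo 2.0 luminescence; GI50 from four-parameter fit.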

BRD4-BD2 = BRD4-BD2 (Homo sapiens (Human), UniProt O60885); assay: bromoKdELECT assay for binding affinity to BRD4-BD2; details: 11-point 3-fold dilution
BRD4-BD1 = BRD4-BD1 (Homo sapiens (Human), UniProt O60885); assay: bromoKdELECT assay for binding affinity to BRD4-BD1; details: 11-point 3-fold dilution

SMILES	GI50 (VCaP cells; Homo sapiens) [nM]	GI50 [1] [nM]	Kd (BRD4-BD2) [nM]	Kd (BRD4-BD1) [nM]	GI50 (VCaP cells) [nM]
CCS(=O)(=O)Nc1ccc(Oc2cccc(OCCOC3CCN(c4ccc(C(=O)N[C@H]5CC[C@H](Oc6ccc(C#N)c(Cl)c6)CC5)nn4)CC3)c2)c(-c2cn(C)c(=O)c3[nH]ccc23)c1 [I-1, N-[4-(3-chloro-4-cyano-phenoxy)cyclohexyl]-6-[4-[2-[3-[4-(ethylsulfonylamino)-2-(6-methyl-7-oxo-1H-pyrrolo[2,3-c]pyridin-4-yl)phenoxy]phenoxy]ethoxy]-1-piperidyl]pyridazine-3-carboxamide]	< 500	< 500			
CCS(=O)(=O)c1ccc(Oc2cccc(CCCOC3CC4(C3)CN(c3ccc(C(=O)N[C@H]5CC[C@H](Oc6ccc(C#N)c(Cl)c6)CC5)nn3)C4)c2F)c(-c2cn(C)c(=O)c3[nH]ccc23)c1 [I-46]	< 500	< 500	500 to 2500	500 to 2500	
CCS(=O)(=O)c1ccc(Oc2cccc(CCC3CCN(c4ccc(C(=O)N[C@H]5CC[C@H](Oc6ccc(C#N)c(Cl)c6)CC5)nn4)CC3)c2F)c(-c2cn(C)c(=O)c3[nH]ccc23)c1 [I-51]	< 500	< 500	50 to 500	50 to 500	
CCS(=O)(=O)c1ccc(Oc2cccc(CCCC3CCN(c4ccc(C(=O)N[C@H]5CC[C@H](Oc6ccc(C#N)c(Cl)c6)CC5)nn4)CC3)c2F)c(-c2cn(C)c(=O)c3[nH]ccc23)c1 [I-52]		< 500	50 to 500	50 to 500	< 500
CCS(=O)(=O)c1ccc(Oc2cc(F)c(CCC3CCN(c4ccc(C(=O)N[C@H]5CC[C@H](Oc6ccc(C#N)c(Cl)c6)CC5)nn4)CC3)cc2F)c(-c2cn(C)c(=O)c3[nH]ccc23)c1 [I-59]		< 500	500 to 2500	500 to 2500	< 500
Cn1cc(-c2cc(C(C)(C)O)ccc2Oc2ccc(OC3CN(c4ccc(C(=O)N[C@H]5CC[C@H](Oc6ccc(C#N)c(Cl)c6)CC5)nn4)C3)cc2)c2cc[nH]c2c1=O [I-95, N-[4-(3-chloro-4-cyano-phenoxy)cyclohexyl]-6-[3-[4-[4-(1-hydroxy-1-methyl-ethyl)-2-(6-methyl-7-oxo-1H-pyrrolo[2,3-c]pyridin-4-yl)phenoxy]phenoxy]azetidin-1-yl]pyridazine-3-carboxamide]	< 500	< 500	500 to 2500	500 to 2500	
Cn1cc(-c2cc(C(C)(C)O)ccc2Oc2ccc(CCC3CCN(c4ccc(C(=O)N[C@H]5CC[C@H](Oc6ccc(C#N)c(Cl)c6)CC5)nn4)CC3)cc2)c2cc[nH]c2c1=O [I-102]		< 500	> 2500	> 2500	< 500
Cn1cc(-c2cc(C(C)(C)O)ccc2Oc2c(F)cc(CCOC3CCN(c4ccc(C(=O)N[C@H]5CC[C@H](Oc6ccc(C#N)c(Cl)c6)CC5)nn4)CC3)cc2F)c2cc[nH]c2c1=O [I-109]	< 500	< 500	500 to 2500	500 to 2500	
Cn1cc(-c2cc(C(C)(C)O)ccc2O[C@H]2C[C@H](N(C)CC3CCN(c4ccc(C(=O)N[C@H]5CC[C@H](Oc6ccc(C#N)c(Cl)c6)CC5)nn4)CC3)C2)c2cc[nH]c2c1=O [I-158, N-((1r,4r)-4-(3-chloro-4-cyanophenoxy)cyclohexyl)-6-(4-((((1r,3r)-3-(4-(2-hydroxypropan-2-yl)-2-(6-methyl-7-oxo-6,7-dihydro-1H-pyrrolo[2,3-c]pyridin-4-yl)phenoxy)cyclobutyl)(methyl)amino)methyl)piperidin-1-yl)pyridazine-3-carboxamide]	< 500	< 500	50 to 500	50 to 500	
